Drawing on the OligoGym collection, this text covers target mRNA inhibition for 74 sequences.

Several values for one entry are separate records, joined by “and”; a condition that tells them apart may be missing. Equal entries are not always repeated. After the bases stand the sugars from the 5' end (letter, count) and the backbone: PS all phosphorothioate, else s phosphorothioate and o phosphodiester by linkage. Methylation of C is not given here. e = 2'-O-(2-methoxyethyl) (MOE); k = constrained ethyl (cEt); d = 2'-deoxy (DNA); m = 2'-O-methyl

The data set has as its target HSD17B13. Conditions: ASO, HepaRG.

The sequence AAAGACTTTGAGACTC (sugars k3 d10 k3, PS) registered a target mRNA inhibition (0.02 µM) of 0%; a target mRNA inhibition (0.078 µM) of 18%; a target mRNA inhibition (0.313 µM) of 40%; a target mRNA inhibition (1 µM) of 68%; a target mRNA inhibition (1.25 µM) of 65%; a target mRNA inhibition (5 µM) of 87%. Sequence TTGACATAACTTCATA (sugars k3 d10 k3, PS) displayed a target mRNA inhibition (1 µM) of 15%. On to GAATAGTCTTCAGCAA (sugars k3 d10 k3, PS), for which the target mRNA inhibition (1 µM) was 51%. In the case of CCGAAAAAAGTGGAGG (sugars k3 d10 k3, PS), the target mRNA inhibition (1 µM) was determined as 31%. Under “1 µM”, “TTGACTGCTGCTAGTG (sugars k3 d1 m1 d8 k3, PS)” registered a target mRNA inhibition of 40%. The sequence “CAGAGACATGAGGTTT (sugars k3 d9 k3 e1, PS)” had a target mRNA inhibition (1 µM) of 45%.

As for ATTGCAGTTATTAGAA (sugars k3 d10 k3, PS), the target mRNA inhibition (1 µM) stood at 42%. For TTCTCTTGGGTCCATT (sugars k3 d10 k3, PS), the target mRNA inhibition (1 µM) stood at 44%.

As to AGTAATCAGTTTTCCT (sugars k3 d10 k3, PS), the target mRNA inhibition (1 µM) amounted to 65%.

In the case of GCCTTTTAACTACCCT (sugars k3 d10 k3, PS), the target mRNA inhibition (1 µM) is 0%.

In turn, ATTATGTGATTGAGTT (sugars k3 d10 k3, PS) showed a target mRNA inhibition (1 µM) of 46%. For “TGAAGTTAGTATAGTT (sugars k3 d9 k3 e1, PS)”, the target mRNA inhibition (1 µM) is 70%. As for “TGTCUAAACATCTCTG (sugars k3 d1 m1 d8 k3, PS)”, the target mRNA inhibition (1 µM) is 44%. Under “1 µM”, TTCAACTAAACATGAC (sugars k3 d10 k3, PS) returned a target mRNA inhibition of 55%. Where the note is “1 µM”, “GCTGCTAGTGCCAAAC (sugars k3 d1 m1 d8 k3, PS)” returned a target mRNA inhibition of 39%.

In the case of ACTTTTCCGTCTCACA (sugars k3 d10 k3, PS), the target mRNA inhibition reads like this: (0.02 µM) 0%; (0.078 µM) 19%; (0.313 µM) 61%; (1 µM) 89%; (1.25 µM) 88%; (5 µM) 84%. As to TGAGGTAAGGAATCCC (sugars k3 d10 k3, PS), the target mRNA inhibition (1 µM) stood at 2%. In turn, “GTGTTCTTGTTGATAT (sugars k3 d9 k3 e1, PS)” had a target mRNA inhibition (1 µM) of 66%.

TCCAATTTAAATCAGG (sugars k3 d10 k3, PS) gave a target mRNA inhibition (1 µM) of 61%. In turn, TTTAAAATAGAGTCGG (sugars k3 d10 k3, PS) returned a target mRNA inhibition (0.02 µM) of 0%; a target mRNA inhibition (0.078 µM) of 0%; a target mRNA inhibition (0.313 µM) of 1%; a target mRNA inhibition (1 µM) of 69%; a target mRNA inhibition (1.25 µM) of 48%; a target mRNA inhibition (5 µM) of 77%. The sequence TATCAATGCCTTAGCC (sugars k3 d10 k3, PS) yielded a target mRNA inhibition (1 µM) of 15%. For TTTTATAGACTGGGTA (sugars k3 d10 k3, PS), the target mRNA inhibition (1 µM) is 53%.

GACCTCAAATGTCTTG (sugars k3 d10 k3, PS): the target mRNA inhibition (1 µM) was determined as 12%. The same measure, in the same setting: the result for “TGTCCACCTTTAAATG (sugars k3 d1 m1 d8 k3, PS)” reads 17%; that for “ATTGTCTAAACATCTC (sugars k3 d9 k3 e1, PS)”, 71%; that for ATTAGAAGTCAGCCCA (sugars k3 d10 k3, PS), 42%. In turn, TCTACCACATACGCAT (sugars k3 d10 k3, PS) came in with a target mRNA inhibition (1 µM) of 55%. In the case of ACATTCTTCAGGTGTT (sugars k3 d10 k3, PS), the target mRNA inhibition is, setting by setting: (0.02 µM) 0%; (0.078 µM) 20%; (0.313 µM) 48%; (1 µM) 88%; (1.25 µM) 80%; (5 µM) 90%. In the case of GTTGAGATAAAGCTGC (sugars k3 d10 k3, PS), under “1 µM”, the target mRNA inhibition is 54%. Under “1 µM”, TAACATTCGGCTAGGC (sugars k3 d10 k3, PS) displayed a target mRNA inhibition of 52%. The same measure, in the same setting: the result for TTCACCAACGACTCCA (sugars k3 d10 k3, PS) reads 62%; that for TGAACCCAGTATTCAC (sugars k3 d10 k3, PS), 10%.

Consider ATATGTCCAGGTTGAG (sugars k3 d10 k3, PS), for which the target mRNA inhibition (1 µM) is 61%.

For CCAATATAATCCAAAG (sugars k3 d10 k3, PS), where the note is “1 µM”, the target mRNA inhibition is 28%.

Turning to TTGGAATGCTACTTGA (sugars k3 d10 k3, PS), the target mRNA inhibition runs as follows: (0.02 µM) 20%; (0.078 µM) 33%; (0.313 µM) 47%; (1 µM) 72%; (1.25 µM) 80%; (5 µM) 83%. CATTATAAGCTAACTA (sugars k3 d10 k3, PS) registered a target mRNA inhibition (1 µM) of 39%. Same read-out and setting: for TGTCTAAACATCTCTG (sugars k3 d10 k3, PS) the value was 58%. Same read-out and setting: for TGTTTATGTAAGCACA (sugars k3 d10 k3, PS) the value was 74%.

For “AATTCACCTTGACTAA (sugars k3 d9 k3 e1, PS)”, the target mRNA inhibition (1 µM) amounted to 16%. “GGTTGAGATAAAGCTG (sugars k3 d9 k3 e1, PS)” came in with a target mRNA inhibition (1 µM) of 67%. TCAACCTGCACACCAT (sugars k3 d10 k3, PS): the target mRNA inhibition reads like this: (0.02 µM) 14%; (0.078 µM) 32%; (0.313 µM) 47%; (1 µM) 72%; (1.25 µM) 71%; (5 µM) 84%. CATAATAATAGCTCTA (sugars k3 d10 k3, PS) came in with a target mRNA inhibition (1 µM) of 41%.

Turning to “GTATGTTTATGTAAGC (sugars kkdddddddddkekek, PS)”, the target mRNA inhibition is, setting by setting: (0.02 µM) 11%; (0.078 µM) 27%; (0.313 µM) 53%; (1 µM) 72%; (1.25 µM) 63%; (5 µM) 68%. Take AAAAAATTGGTTTCGA (sugars k3 d10 k3, PS): the target mRNA inhibition (1 µM) came to 20%. Still for that read-out and setting: for ACATATGGTGTACACT (sugars k3 d10 k3, PS) the value was 19%; for ATAAACATAGGCTTAG (sugars k3 d10 k3, PS), 41%. Same read-out and setting: for “GAAACTTGATCTCTTA (sugars k3 d1 m1 d8 k3, PS)” the value was 59%.

In the case of ATCCCACAGAACCAAT (sugars k3 d10 k3, PS), for the setting “1 µM”, the target mRNA inhibition is 34%.

Sequence TGTAAGCTGAGAGTTC (sugars k3 d10 k3, PS) displayed a target mRNA inhibition (1 µM) of 45%.

Where the note is “1 µM”, CAACGACTCCAAGTAG (sugars k3 d10 k3, PS) displayed a target mRNA inhibition of 0%. The same measure, in the same setting: the result for ACTTCTTACGACTTCA (sugars k3 d10 k3, PS) reads 43%. “GAATAGCAAGCCAACA (sugars k3 d9 k3 e1, PS)” displayed a target mRNA inhibition (1 µM) of 30%.

Take ACTACATGACCTGGGT (sugars k3 d10 k3, PS): the target mRNA inhibition (1 µM) turned out to be 54%. Same read-out and setting: for AAGATACCCAGGTTGC (sugars k3 d10 k3, PS) the value was 59%.

For CAAGGGAACACTGTCA (sugars k3 d10 k3, PS), the target mRNA inhibition (1 µM) amounted to 58%. For the sequence CACATATGTGAAGAGC (sugars k3 d10 k3, PS), the target mRNA inhibition (1 µM) is 71%. In the case of “TAGTCTTGATGTAGTG (sugars k3 d1 m1 d8 k3, PS)”, the target mRNA inhibition (1 µM) was found to be 56%. Take TTTTACTGGGATACTA (sugars k3 d10 k3, PS): the target mRNA inhibition (1 µM) is 27%. For the sequence “TCCTGTGTTAGCTTTA (sugars k3 d9 k3 e1, PS)”, the target mRNA inhibition runs as follows: (0.02 µM) 0%; (0.078 µM) 0%; (0.313 µM) 34%; (1 µM) 75% and 50%; (1.25 µM) 50%; (5 µM) 81%. Regarding ACTTCAGAGTTATACA (sugars k3 d10 k3, PS), the target mRNA inhibition (1 µM) came out at 35%.

In turn, AGGGAGGTAGCTTTTG (sugars k3 d10 k3, PS) had a target mRNA inhibition (1 µM) of 46%. Same read-out and setting: for TCTAAACTAGTGGTAA (sugars k3 d10 k3, PS) the value was 24%. As to ATACATCAACTCCTCT (sugars k3 d10 k3, PS), the target mRNA inhibition turned out to be 0% (0.02 µM); 9% (0.078 µM); 26% (0.313 µM); 64% (1 µM); 63% (1.25 µM); 83% (5 µM). Take GTAAATTCTTGCTATC (sugars k3 d10 k3, PS): the target mRNA inhibition (1 µM) is 40%. Still for that read-out and setting: for TAATTTTCGGGTTCTT (sugars k3 d10 k3, PS) the value was 40%. With “TGTGGCATGGCTACAG (sugars k3 d9 k3 e1, PS)”, under “1 µM”, the target mRNA inhibition was 25%. CCAAAAATGTCCTAGG (sugars k3 d10 k3, PS) had a target mRNA inhibition (1 µM) of 38%. Turning to “GCTCCATAATAATAGC (sugars kkdddddddddkekek, PS)”, under “1 µM”, the target mRNA inhibition was found to be 15%. Turning to CCGTTATAAGTTTCAT (sugars k3 d10 k3, PS), the target mRNA inhibition (1 µM) was 54%. On the same count and under the same terms, the result for GACTCCAAGTAGGAGT (sugars k3 d10 k3, PS) reads 0%; that for “TGACAATGGTTGCCAC (sugars k3 d9 k3 e1, PS)”, 45%; that for GTTATTAGAAGTCAGC (sugars k3 d10 k3, PS), 56%. Consider GAGGATAGTGAACATA (sugars k3 d10 k3, PS), for which the target mRNA inhibition (1 µM) was found to be 50%. Consider GTAATAGCCAGTACAG (sugars k3 d10 k3, PS), for which the target mRNA inhibition amounted to 0% (0.02 µM); 9% (0.078 µM); 45% (0.313 µM); 77% (1 µM); 69% (1.25 µM); 84% (5 µM).
